From patent US9545387B2, “Composition and kit comprising piperazine derivatives and metformin, and use thereof in the treatment of diabetes” (METABOLYS, priority 2012, dated 2017)

Tests used:
[1] = oral glucose tolerance test (OGTT) in normal Swiss mice fasting for 17 hours, additive effect with metformin; assay type: in vivo; settings: compound 1 50 mg/kg per os, metformin 300 mg/kg per os
Method: The anti-diabetic action of the compounds in Examples 1 and 2 were determined via oral route in normal Swiss mice fasting for 17 hours. […] The animals were housed for a minimum time of one week after delivery (ordered from Charles River France) up until the day of experimentation in an animal facility at a temperature regulated at 21-22° C. and subjected to a light cycle (from 9 h to 17 h) and dark cycle (from 19 h to 7 h). They were fed a maintenance diet: water and food were provided ? ad libitum ? . The animals were treated via oral route 1 hour before oral administration of a glucose load (oral glucose tolerance test—OGTT). Glycaemia was measured at various times before and after this glucose load. This glycaemia was measured using a glucometer (Lifescan OneTouch Ultra, Lifescan, Johnson and Johnson Company) and OneTouch Ultra glycaemia test strips. In the Tables below n represents the number of mice included in the study. • 1. […] The 2 compounds were administered successively one hour before the glucose load. All the groups were composed of 5 mice (metformin alone, compound 1 alone, metformin+compound 1, control group with the carrier alone). Blood samples were taken at 0, 30, 60, 90 and 120 minutes after the glucose load.

[2] = as above; assay type: in vivo; settings: metformin 300 mg/kg per os; for Glycaemia, Time −60 mn / Glycaemia, Time 30 mn / Glycaemia, Time 60 mn / Glycaemia, Time 120 mn / Glycaemia, Time 0 mn / Glycaemia, Time 90 mn: OGTT; for Glycaemia, Time −60 mn: given 1 h before glucose load, time −60 min; for Glycaemia, Time 30 mn: time 30 min; for Glycaemia, Time 60 mn: time 60 min; for Glycaemia, Time 120 mn: time 120 min; for Glycaemia, Time 0 mn: time 0 min; for Glycaemia, Time 90 mn: time 90 min
[3] = glycaemia and circulating insulin before and after a glucose load in STZ-N0a rats; assay type: in vivo; settings: for Glycaemia, Time −60 mn / Insulin, Time −60 mn: time −60 min; for Glycaemia, Time 0 mn / Insulin, Time 0 mn: time 0 min; for Glycaemia, Time 30 mn / Insulin, Time 30 mn: time 30 min; for Glycaemia, Time 60 mn / Insulin, Time 60 mn: time 60 min; for Glycaemia, Time 90 mn / Insulin, Time 90 mn: time 90 min; for Glycaemia, Time 120 mn / Insulin, Time 120 mn: time 120 min
Description: An increase in insulin secretion was noted solely when compound 2 caused an increases in the peripheral consumption of glucose by skeletal muscle (Tables 9 to 12 which give a mean of the results obtained). […] It is shown in Tables 11 and 12 that if there is no increase in muscle consumption of glucose, there is no increase in the level of circulating insulin.

[4] = tested on: liver cells of rats fasting for 48 h; assay: metabolism of lactate and glutamine in liver cells of rats fasting for 48 h; assay type: cell-based, rat
Method: […] Enzymatic assay of the consumption of lactate and glutamine was performed, the production of their metabolites was also analysed. Finally the ATP cell concentration was determined.
Complete oxidation of a substrate was measured by the lowest CO2 value produced from one of its carbons. As a result, this carbon is found in greater quantity in non-volatile products (other than CO2) formed during the metabolism of this substrate.
Complete oxidation of lactate can therefore be determined by measuring the production of 13CO2 from 2-13C-lactate.
Complete oxidation of glutamine can be examined by measuring the production of 13CO2 from 3-13C-glutamine (Biochem. J., 2004, 378, 485-495).

[5] = Table 1, compound 1 50 mg/kg per os
[6] = Table 11, compound 2, title 25 mg/kg (row prints 200 mg/kg)
[7] = Table 12, compound 2, title 25 mg/kg (row prints 200 mg/kg)
[8] = 5 mM 2-13C-lactate + 0.5 mM compound 2, n = 4
[9] = 5 mM 3-13C-glutamine + 0.5 mM compound 2, n = 4
[10] = 5 mM glutamine + 2 mM compound 2, n = 6
[11] = 5 mM lactate + 0.5 mM compound 2, n = 3
[12] = 5 mM lactate + 2 mM compound 2, n = 6
[13] = Table 2, compound 2 50 mg/kg per os
[14] = Table 3, compound 3 50 mg/kg per os
[15] = Table 4, compound 4 50 mg/kg per os

## O=C(O)CCC(=O)c1ccc(OCCN2CCN(c3ccccc3F)CC2)cc1 [Compound 1]
[1]; Table 1, OGTT, time 0 min
  Glycaemia, Time 0 mn: 4.5 ± 0.3 mM/liter
[1]; Table 1, OGTT, time 90 min
  Glycaemia, Time 90 mn: 6.5 ± 0.5 mM/liter
[1]; study 1
  drop of glycaemia area under curve after glucose load: 42.5%
[2]; [5]
  Glycaemia, Time −60 mn: 5.0 ± 0.2 mM/liter
  Glycaemia, Time 30 mn: 15.2 ± 1.9 mM/liter
  Glycaemia, Time 60 mn: 10.6 ± 0.2 mM/liter
  Glycaemia, Time 120 mn: 5.3 ± 0.2 mM/liter

## O=C(O)CCC(=O)c1ccc(OCCN2CCN(c3ccccn3)CC2)cc1 [Compound 2]
[3]; Table 9, compound 2 200 mg/kg
  Glycaemia AUC: 356
  Glycaemia, Time 0 mn: 8.75 mmol/L
  Glycaemia, Time 30 mn: 12.97 mmol/L
  Glycaemia, Time 60 mn: 13.15 mmol/L
  Glycaemia, Time 90 mn: 11.37 mmol/L
  Glycaemia, Time 120 mn: 10.13 mmol/L
[3]; Table 9, compound 2 200 mg/kg, glucose load at 0 min
  Glycaemia, Time −60 mn: 4.75 mmol/L
[3]; Table 10, compound 2 200 mg/kg, circulating insulin
  Insulin, Time −60 mn: 0.47 ng/mL
[3]; Table 10, compound 2 200 mg/kg
  Insulin, Time 0 mn: 0.41 ng/mL
  Insulin, Time 30 mn: 0.70 ng/mL
  Insulin, Time 60 mn: 0.59 ng/mL
  Insulin, Time 90 mn: 0.54 ng/mL
  Insulin, Time 120 mn: 0.53 ng/mL
[3]; [6]
  Glycaemia AUC: 1048
  Glycaemia, Time 0 mn: 5.23 mmol/L
  Glycaemia, Time 30 mn: 11.15 mmol/L
  Glycaemia, Time 60 mn: 16.21 mmol/L
  Glycaemia, Time 90 mn: 14.36 mmol/L
  Glycaemia, Time 120 mn: 15.33 mmol/L
  Glycaemia, Time −60 mn: 5.12 mmol/L
[3]; [7]
  Insulin, Time 0 mn: 1.41 ng/mL
  Insulin, Time 30 mn: 1.76 ng/mL
  Insulin, Time 60 mn: 1.48 ng/mL
  Insulin, Time 90 mn: 1.61 ng/mL
  Insulin, Time 120 mn: 1.61 ng/mL
  Insulin, Time −60 mn: 1.11 ng/mL
[4]; 5 mM 2-13C-lactate + 0.5 mM compound 2
  reduction of the consumption of lactate: 10%
[4]; [8]
  13CO2 production: 5.99 ± 0.09 μmoles/flask
  ATP concentration: 188.4 ± 25.2 nanomoles per 6 precisely cut liver section
  Glucose production: 4.69 ± 0.14 μmoles/flask
[4]; [9]
  ATP concentration: 362.9 ± 53.3 (NS) nanomoles per 6 precisely cut liver sections
  Glucose production: 6.05 ± 0.30 μmoles/flask
  Production of 13CO2: 1.86 ± 0.28 μmoles/flask
[4]; 5 mM glutamine + 2 mM compound 2
  ATP concentration: 34.2 ± 7.6 nanomoles per 2 precisely cut liver sections
[4]; 5 mM glutamine + 2 mM compound 2, consumption of glutamine − (2 * glucose + pyruvate + lactate + alanine + glutamate products)
  Complete oxidation: 0.59 ± 0.35* μmoles/flask
[4]; [10]
  Consumption of substrate (—): −2.77 ± 0.15 μmoles/flask
  Glucose production: 0.78 ± 0.09 μmoles/flask
[4]; [11]
  Sum of labelling of non-volatile products from lactate metabolism, 1-13C-lactate: 1.36 ± 0.09*+ μmoles of carbon 13/flask
  Sum of labelling of non-volatile products from lactate metabolism, 2-13C-lactate: 4.94 ± 0.15 μmoles of carbon 13/flask
  Sum of labelling of non-volatile products from lactate metabolism, 3-13C-lactate: 4.06 ± 0.15*+ μmoles of carbon 13/flask
[4]; 5 mM lactate + 2 mM compound 2
  ATP concentration: 31.8 ± 8.0 nanomoles per 2 precisely cut liver sections
[4]; 5 mM lactate + 2 mM compound 2, consumption of lactate − (2 * glucose + pyruvate + alanine products)
  Complete oxidation: 0.64 ± 0.30* μmoles/flask
[4]; 5 mM lactate + 2 mM compound 2, lactate consumption minus twice glucose production
  NADH mitochondrial transport: 1.06 ± 0.33 μmoles/flask
[4]; [12]
  Consumption of substrate (—): −2.59 ± 0.34 μmoles/flask
  Glucose production: 0.76 ± 0.13 μmoles/flask
[2]; [13]
  Glycaemia, Time −60 mn: 4.6 ± 0.4 mM/liter
  Glycaemia, Time 0 mn: 4.9 ± 0.2 mM/liter
  Glycaemia, Time 30 mn: 14.5 ± 1.4 mM/liter
  Glycaemia, Time 60 mn: 10.4 ± 0.5 mM/liter
  Glycaemia, Time 90 mn: 8.3 ± 1.1 mM/liter
  Glycaemia, Time 120 mn: 6.8 ± 0.6 mM/liter
[2]; study 2, compound 2 50 mg/kg per os
  drop of glycaemia area under curve after glucose load: 40.5%

## COc1cccc(N2CCN(CCOc3ccc(C(=O)CCC(=O)O)cc3)CC2)c1 [Compound 3]
[2]; [14]
  Glycaemia, Time −60 mn: 4.4 ± 0.3 mM/liter
  Glycaemia, Time 0 mn: 5.5 ± 0.3 mM/liter
  Glycaemia, Time 30 mn: 11.3 ± 0.6 mM/liter
  Glycaemia, Time 60 mn: 9.7 ± 0.4 mM/liter
  Glycaemia, Time 90 mn: 7.4 ± 0.3 mM/liter
  Glycaemia, Time 120 mn: 7.2 ± 0.5 mM/liter
[2]; study 3, compound 3 50 mg/kg per os
  drop of glycaemia area under curve after glucose load: 54.9%

## COc1ccccc1N1CCN(CCOc2ccc(CCCCC(=O)O)cc2)CC1 [Compound 4]
[2]; [15]
  Glycaemia, Time −60 mn: 3.4 ± 0.2 mM/liter
  Glycaemia, Time 0 mn: 4.0 ± 0.3 mM/liter
  Glycaemia, Time 30 mn: 18.6 ± 3.2 mM/liter
  Glycaemia, Time 60 mn: 13.3 ± 1.5 mM/liter
  Glycaemia, Time 90 mn: 8.8 ± 1.0 mM/liter
  Glycaemia, Time 120 mn: 6.8 ± 1.0 mM/liter
[2]; study 4, compound 4 50 mg/kg per os
  drop of glycaemia area under curve after glucose load: 18.7%
